Values of other authors in US20140051737A1, “METHODS FOR THE TREATMENT AND DIAGNOSTIC OF PULMONARY ARTERIAL HYPERTENSION” (UNIVERSITE LAVAL, priority 2011, published 2014).

Tested on: patients carrying the BRCA1 or BRCA2 mutation
Conditions: cited from earlier work

In the case of `O=C(c1cc(Cc2n[nH]c(=O)c3ccccc23)ccc1F)N1CCN(C(=O)C2CC2)CC1` [olaparib], the objective antitumor activity is listed as “only showed objective antitumor activity in patients carrying the BRCA1 or BRCA2 mutation”.
